Assay results reported in patent US9387221B2, “SDF-1 binding nucleic acids and the use thereof in cancer treatment” (NOXXON Pharma AG, priority 2010, dated 2016).
pIC50: −log10 of the molar value. {PEG40k} = 40 kDa polyethylene glycol

Tested on: Human CXCR7
Assay: CXCR7 β-arrestin complementation assay (PathHunter), CHO cells
Format: cell-based
Settings: 10 nM human SDF-1, 90 minutes; read-out: IC50, CXCR7 activation (β-galactosidase)
Description: Besides CXCR4, SDF-1 also binds to the chemokine receptor CXCR7. The inhibitory potential of SDF-1-binding Spiegelmer NOX-A12 towards CXCR7 was tested in a complementation assay with CHO cells stably expressing CXCR7 and β-arrestin both fused to a fragment of β-galactosidase (PathHunter™—β-arrestin assay, DiscoveRX, CA, USA). Upon SDF-1 binding β-arrestin complexed with CXCR7 and thus led to complementation and activation of the β-galactosidase which was measured with a chemiluminescence substrate.
PathHunter eXpress CHO-K1 Human CXCR7 β-arrestin cells were plated for 48 hours in OCC2 Medium and stimulated with 10 nM SDF-1 and various concentrations of SDF-1-binding Spiegelmer NOX-A12 for 90 minutes. Following stimulation, signal was detected using the PathHUnter Detection Kit and the manufacturer's recommended protocol (DiscoveRX, CA, USA).

Substance: 5′-40 kDa-PEG-GCGUGGUGUGAUCUAGAUGUAUUGGCUGAUCCUAGUCAGGUACGC (5' {PEG40k}, sugars by position and backbone not given here) [NOX-A12]
- pIC50: 8.27
